“Also recorded” adds a separate entry of the source. No end group written: not given here. dns = not defined here
Assays:
mouse MAb DO-1 = assay: Oligopeptide immunoassay with MAb DO-1 and FITC-tagged secondary antibody; format: binding; conditions: hexapeptide microarray made with acid PGR, FITC-tagged rabbit anti-mouse IgG
Method: Solid substrates comprising oligopeptids were washed with PBS (phosphate-buffered saline, 25 mM NaH2PO4, 125 mM NaCl, pH 7.4), PBST (PBS, 0.2% (V/V) Tween 20), and PBS, respectively. Next, the solid substrates were then incubated with mouse MAb DO-1, which recognizes amino acid residue 20-25 of human tumor suppressor protein p53, in PBS at room temperature for 2 h. After washing with PBST and PBS, samples were treated with FITC-tagged secondary rabbit anti-mouse immunoglobulin (IgG) overnight at 4° C. Following washing with PBST and PBS, fluorescence of the solid substrate was measured.

[1] = Pb^2+ ion binding assay of oligopeptides on microarray (fluorescence); conditions: peptide microarray made with acid PGR; lead chloride in buffer
Method: (§1) 5-dimethylaminonaphthalene-1-sulfonyl chloride (dansyl chloride, dns) generated fluorescence was also performed by contacting the solid substrate with a mixture of dns (1.25 mmol) and triethylamine (0.125 mmol) in DMF for 4 h at room temperature. The fluorescence detection was done in the same manner as previously described for FAM with the exception that the excitation wavelength was 365 nm.
For the Pb^2+ ion assay, solid substrates comprising oligopeptides were washed with a buffer solution containing 100 mM HEPES (pH 7.1) and 10% methanol. Samples were then treated with 0.1 mM lead chloride in buffer overnight at room temperature. After washing with buffer solution and methanol the solid substrates were left to dry in an inert atmosphere in the dark.

[2] = As^3+ ion binding assay of oligopeptides on microarray (fluorescence); conditions: peptide microarray made with acid PGR; NaAsO2
Method: as §1
For the As^3+ ion assay, the assay was performed by the same procedure as the Pb^2+ assay but the buffer was 10 mM sodium acetate (pH 4.0) containing 100 mM NaCl and 0.1 mM sodium arsenite (NaAsO2) was the metal ion solution.

Row | fluorescence labeling / fluorescence intensity on binding of MAb DO-1 (mouse MAb DO-1) | Substance | fluorescence labeling / fluorescence intensity on Pb^2+ binding [1] | further results
1 | fluorescence intensity is not detected | DSLGKL: hexapeptide analogue of SDLHKL on the microarray (DSLHKL; printed: Asp-Ser-Leu-His-Lys-Leu) |  | 
2 |  | H2N-Glu-Glu-Glu-Glu (EEEE; printed: Glu-Glu-Glu-Glu) [tetrapeptide analogue on the microarray] | increase is fluorescence is not observed | 
3 | selective labeling | SDLHKL [hexapeptide, amino acid residue 20-25 of human p53 protein] |  | fluorescence labeling / fluorescence intensity on binding of MAb DO-1 (mouse MAb DO-1; listed as SDLHKL): fluorescence intensity is detected
4 | fluorescence intensity is not detected | SGLHKL [hexapeptide analogue of SDLHKL on the microarray] |  | 
5 |  | dns-Cys-Cys-Cys-Cys | increase is fluorescence is not observed | 
6 |  | dns-Glu-Cys-Glu-Glu | significant increase in fluorescence intensity; also recorded: selective labeling | 
7 |  | dns-Glu-Glu-Glu-Glu |  | fluorescence labeling / fluorescence intensity on As^3+ binding [2]: fluoresence intensity is greatest; also recorded: selective labeling
8 |  | dns-Gly-Gly-Gly-Gly (dns-GGGG; reading uncertain; also: printed as dns-Gly-Gly-Gly-Gly) [das-Gly-Gly-Gly-Gly, dansyl-labeled tetrapeptide] | increase is fluorescence is not observed | 
